Read-outs that look alike come from different tables or passages of the source.
Assay: Single dose PK in healthy subjects (Cohorts 1, 2, S1 and S2), plasma
Assay type: in vivo, human
Settings: human, plasma, iv; for concentration at 3 h after end of infusion: 3 hr After End of Infusions; for concentration at 4 h after end of infusion: 4 hr After End of Infusions; for concentration at 6 h after end of infusion: 6 hr After End of Infusions; for concentration at 10 h after end of infusion: 10 hr After End of Infusions; for concentration at 15 h after end of infusion: 15 hr After End of Infusions
Protocol: This study investigates (i) the safety and tolerability of Compound A (methyl (2R,3S)-3-((methylsulfonyl)amino)-2-(((cis-4-phenylcyclohexyl)oxy)methyl)piperidine-1-carboxylate) when a single dose given as a 9 hour continuous IV infusion is administered to healthy adults, healthy elderly subjects and patients with narcolepsy type 1 (NT1); (ii) the pharmacokinetics of Compound A when a single dose given as a 9 hour continuous IV infusion is administered to healthy adults, healthy elderly subjects and patients with narcolepsy type 1; and (iii) the pharmacodynamics (PD) effects of Compound A, primarily by evaluation of the sleep latency on MWT when a single dose given as a 9 hour continuous IV infusion is administered to patients with narcolepsy type 1.
Pharmacokinetics: Concentrations of Compound A in plasma, and CSF, and pharmacokinetics parameters.
On average, the time to reach the plateau appeared to be approximately 3 to 4 hours after the start of infusion. […] After switching off the IV infusion, Compound A plasma concentrations declined rapidly and in a biphasic manner with a mean terminal disposition phase t1/2z ranging approximately from 3.4 to 5.1 hours across all doses. […] Table 5 provides a summary of plasma concentrations of Compound A after a single IV infusion in healthy subjects. Table 6 provides a summary of pharmacokinetic parameters of Compound A after a single IV infusion in healthy subjects.

[1] = 240 mg, 240 mg single IV infusion, read-out: Plasma Concentration of Cmpd A, Maximum
[2] = 240 mg, 240 mg single IV infusion, read-out: Plasma Concentration of Cmpd A, Median
[3] = 240 mg, 240 mg single IV infusion, read-out: Plasma Concentration of Cmpd A, Q3
[4] = 240 mg, 240 mg single IV infusion, read-out: Plasma Concentration of Cmpd A, Q1

COC(=O)N1CCC[C@H](NS(C)(=O)=O)[C@@H]1CO[C@H]1CC[C@@H](c2ccccc2)CC1 [Compound A, methyl (2R,3S)-3-((methylsulfonyl)amino)-2-(((cis-4-phenylcyclohexyl)oxy)methyl)piperidine-1-carboxylate]
Cmax (134.4 mg, 134.4 mg single IV infusion, healthy subjects, read-out: Cmax Geo Mean): 305 ng/mL
Cmax (134.4 mg, 134.4 mg single IV infusion, healthy subjects, read-out: Cmax Mean): 308 ng/mL
Cmax (134.4 mg, 134.4 mg single IV infusion, healthy subjects, read-out: Cmax Median): 314 ng/mL
Vd (134.4 mg, 134.4 mg single IV infusion, healthy subjects, read-out: Vss Mean): 88.5 L
Vd (134.4 mg, 134.4 mg single IV infusion, healthy subjects, read-out: Vss Median): 87 L
Vd (134.4 mg, 134.4 mg single IV infusion, healthy subjects, read-out: Vz Mean): 285 L
Vd (134.4 mg, 134.4 mg single IV infusion, healthy subjects, read-out: Vz Median): 276 L
Tmax (134.4 mg, 134.4 mg single IV infusion, healthy subjects, read-out: tmax Mean): 6.33 h
Tmax (134.4 mg, 134.4 mg single IV infusion, healthy subjects, read-out: tmax Median): 6.5 h
AUC (180 mg, 180 mg single IV infusion, healthy subjects, read-out: AUC24 Geo Mean): 2990 ng·h/mL
AUC (180 mg, 180 mg single IV infusion, healthy subjects, read-out: AUC24 Mean): 3000 ng·h/mL
AUC (180 mg, 180 mg single IV infusion, healthy subjects, read-out: AUC24 Median): 3040 ng·h/mL
AUC(0-inf) (180 mg, 180 mg single IV infusion, healthy subjects, read-out: AUCinf Geo Mean): 3010 ng·h/mL
AUC(0-inf) (180 mg, 180 mg single IV infusion, healthy subjects, read-out: AUCinf Mean): 3020 ng·h/mL
AUC(0-inf) (180 mg, 180 mg single IV infusion, healthy subjects, read-out: AUCinf Median): 3050 ng·h/mL
AUC(0-t) (180 mg, 180 mg single IV infusion, healthy subjects, read-out: AUClast Geo Mean): 2990 ng·h/mL
AUC(0-t) (180 mg, 180 mg single IV infusion, healthy subjects, read-out: AUClast Mean): 3000 ng·h/mL
AUC(0-t) (180 mg, 180 mg single IV infusion, healthy subjects, read-out: AUClast Median): 3040 ng·h/mL
clearance (180 mg, 180 mg single IV infusion, healthy subjects, read-out: CL Mean (converted)): 997 mL/min
clearance (180 mg, 180 mg single IV infusion, healthy subjects, read-out: CL Median (converted)): 985 mL/min
concentration at 9 h (180 mg, 180 mg single IV infusion, healthy subjects, read-out: Ceoi Geo Mean): 324 ng/mL
concentration at 9 h (180 mg, 180 mg single IV infusion, healthy subjects, read-out: Ceoi Mean): 325 ng/mL
concentration at 9 h (180 mg, 180 mg single IV infusion, healthy subjects, read-out: Ceoi Median): 316 ng/mL
Cmax (180 mg, 180 mg single IV infusion, healthy subjects, read-out: Cmax Geo Mean): 344 ng/mL
Cmax (180 mg, 180 mg single IV infusion, healthy subjects, read-out: Cmax Mean): 345 ng/mL
Cmax (180 mg, 180 mg single IV infusion, healthy subjects, read-out: Cmax Median): 358 ng/mL
Vd (180 mg, 180 mg single IV infusion, healthy subjects, read-out: Vss Mean): 90.8 L
Vd (180 mg, 180 mg single IV infusion, healthy subjects, read-out: Vss Median): 81.5 L
Vd (180 mg, 180 mg single IV infusion, healthy subjects, read-out: Vz Mean): 291 L
Vd (180 mg, 180 mg single IV infusion, healthy subjects, read-out: Vz Median): 268 L
Tmax (180 mg, 180 mg single IV infusion, healthy subjects, read-out: tmax Mean): 6.33 h
Tmax (180 mg, 180 mg single IV infusion, healthy subjects, read-out: tmax Median): 6.5 h
AUC (240 mg, 240 mg single IV infusion, healthy subjects, read-out: AUC24 Geo Mean): 4540 ng·h/mL
AUC (240 mg, 240 mg single IV infusion, healthy subjects, read-out: AUC24 Mean): 4580 ng·h/mL
AUC (240 mg, 240 mg single IV infusion, healthy subjects, read-out: AUC24 Median): 4400 ng·h/mL
AUC(0-inf) (240 mg, 240 mg single IV infusion, healthy subjects, read-out: AUCinf Geo Mean): 4580 ng·h/mL
AUC(0-inf) (240 mg, 240 mg single IV infusion, healthy subjects, read-out: AUCinf Mean): 4630 ng·h/mL
AUC(0-inf) (240 mg, 240 mg single IV infusion, healthy subjects, read-out: AUCinf Median): 4430 ng·h/mL
AUC(0-t) (240 mg, 240 mg single IV infusion, healthy subjects, read-out: AUClast Geo Mean): 4540 ng·h/mL
AUC(0-t) (240 mg, 240 mg single IV infusion, healthy subjects, read-out: AUClast Mean): 4580 ng·h/mL
AUC(0-t) (240 mg, 240 mg single IV infusion, healthy subjects, read-out: AUClast Median): 4400 ng·h/mL
clearance (240 mg, 240 mg single IV infusion, healthy subjects, read-out: CL Mean (converted)): 880 mL/min
clearance (240 mg, 240 mg single IV infusion, healthy subjects, read-out: CL Median (converted)): 906 mL/min
concentration at 9 h (240 mg, 240 mg single IV infusion, healthy subjects, read-out: Ceoi Geo Mean): 493 ng/mL
concentration at 9 h (240 mg, 240 mg single IV infusion, healthy subjects, read-out: Ceoi Mean): 497 ng/mL
concentration at 9 h (240 mg, 240 mg single IV infusion, healthy subjects, read-out: Ceoi Median): 481 ng/mL
Cmax (240 mg, 240 mg single IV infusion, healthy subjects, read-out: Cmax Geo Mean): 506 ng/mL
Cmax (240 mg, 240 mg single IV infusion, healthy subjects, read-out: Cmax Mean): 512 ng/mL
Cmax (240 mg, 240 mg single IV infusion, healthy subjects, read-out: Cmax Median): 483 ng/mL
Vd (240 mg, 240 mg single IV infusion, healthy subjects, read-out: Vss Mean): 97.5 L
Vd (240 mg, 240 mg single IV infusion, healthy subjects, read-out: Vz Mean): 313 L
Vd (240 mg, 240 mg single IV infusion, healthy subjects, read-out: Vz Median): 293 L
Tmax (240 mg, 240 mg single IV infusion, healthy subjects, read-out: tmax Mean): 5.33 h
Tmax (240 mg, 240 mg single IV infusion, healthy subjects, read-out: tmax Median): 4 h
concentration at 0.5 h (240 mg, 240 mg single IV infusion, 0.5 hr, read-out: Plasma Concentration of Cmpd A, Maximum): 400 ng/mL
concentration at 0.5 hr (240 mg, 240 mg single IV infusion, 0.5 hr, read-out: Plasma Concentration of Cmpd A, Median): 264 ng/mL
concentration at 0.5 hr (240 mg, 240 mg single IV infusion, 0.5 hr, read-out: Plasma Concentration of Cmpd A, Q3): 368 ng/mL
concentration at 1 h (240 mg, 240 mg single IV infusion, 1 hr, read-out: Plasma Concentration of Cmpd A, Maximum): 465 ng/mL
concentration at 1 hr (240 mg, 240 mg single IV infusion, 1 hr, read-out: Plasma Concentration of Cmpd A, Median): 318 ng/mL
concentration at 1 hr (240 mg, 240 mg single IV infusion, 1 hr, read-out: Plasma Concentration of Cmpd A, Q3): 418 ng/mL
concentration at 1.5 h (240 mg, 240 mg single IV infusion, 1.5 hr, read-out: Plasma Concentration of Cmpd A, Maximum): 480 ng/mL
concentration at 1.5 hr (240 mg, 240 mg single IV infusion, 1.5 hr, read-out: Plasma Concentration of Cmpd A, Median): 370 ng/mL
concentration at 1.5 hr (240 mg, 240 mg single IV infusion, 1.5 hr, read-out: Plasma Concentration of Cmpd A, Q3): 463 ng/mL
concentration at 2 h (240 mg, 240 mg single IV infusion, 2 hr, read-out: Plasma Concentration of Cmpd A, Maximum): 482 ng/mL
concentration at 2 hr (240 mg, 240 mg single IV infusion, 2 hr, read-out: Plasma Concentration of Cmpd A, Median): 399 ng/mL
concentration at 2 hr (240 mg, 240 mg single IV infusion, 2 hr, read-out: Plasma Concentration of Cmpd A, Q3): 452 ng/mL
concentration at 3 h after end of infusion [1]: 91 ng/mL
concentration at 3 h after end of infusion [2]: 75.5 ng/mL
concentration at 3 h after end of infusion [3]: 87.1 ng/mL
concentration at 3 h (240 mg, 240 mg single IV infusion, 3 hr, read-out: Plasma Concentration of Cmpd A, Maximum): 582 ng/mL
concentration at 3 hr (240 mg, 240 mg single IV infusion, 3 hr, read-out: Plasma Concentration of Cmpd A, Median): 422 ng/mL
concentration at 3 h (240 mg, 240 mg single IV infusion, 3 hr, read-out: Plasma Concentration of Cmpd A, Q3): 515 ng/mL
concentration at 4 h after end of infusion [1]: 65.1 ng/mL
concentration at 4 h after end of infusion [2]: 56.5 ng/mL
concentration at 4 h after end of infusion [4]: 53.1 ng/mL
concentration at 4 h after end of infusion [3]: 62.7 ng/mL
concentration at 4 h (240 mg, 240 mg single IV infusion, 4 hr, read-out: Plasma Concentration of Cmpd A, Maximum): 650 ng/mL
concentration at 4 hr (240 mg, 240 mg single IV infusion, 4 hr, read-out: Plasma Concentration of Cmpd A, Median): 459 ng/mL
concentration at 4 h (240 mg, 240 mg single IV infusion, 4 hr, read-out: Plasma Concentration of Cmpd A, Q3): 579 ng/mL
concentration at 6 h after end of infusion [1]: 38.2 ng/mL
concentration at 6 h after end of infusion [2]: 28.4 ng/mL
concentration at 6 h after end of infusion [4]: 23 ng/mL
concentration at 6 h after end of infusion [3]: 36.9 ng/mL
concentration at 6 h (240 mg, 240 mg single IV infusion, 6 hr, read-out: Plasma Concentration of Cmpd A, Maximum): 532 ng/mL
concentration at 6 hr (240 mg, 240 mg single IV infusion, 6 hr, read-out: Plasma Concentration of Cmpd A, Median): 410 ng/mL
concentration at 6 h (240 mg, 240 mg single IV infusion, 6 hr, read-out: Plasma Concentration of Cmpd A, Q3): 514 ng/mL
concentration at 8 h (240 mg, 240 mg single IV infusion, 8 hr, read-out: Plasma Concentration of Cmpd A, Maximum): 562 ng/mL
concentration at 8 hr (240 mg, 240 mg single IV infusion, 8 hr, read-out: Plasma Concentration of Cmpd A, Median): 470 ng/mL
concentration at 8 hr (240 mg, 240 mg single IV infusion, 8 hr, read-out: Plasma Concentration of Cmpd A, Q3): 542 ng/mL
concentration at 9 h (240 mg, 240 mg single IV infusion, 9 hr, read-out: Plasma Concentration of Cmpd A, Maximum): 613 ng/mL
concentration at 9 hr (240 mg, 240 mg single IV infusion, 9 hr, read-out: Plasma Concentration of Cmpd A, Median): 481 ng/mL
concentration at 9 hr (240 mg, 240 mg single IV infusion, 9 hr, read-out: Plasma Concentration of Cmpd A, Q3): 539 ng/mL
concentration at 10 h after end of infusion [1]: 18.6 ng/mL
concentration at 10 h after end of infusion [2]: 16.6 ng/mL
concentration at 10 h after end of infusion [4]: 10.3 ng/mL
concentration at 10 h after end of infusion [3]: 17.5 ng/mL
concentration at 15 h after end of infusion [1]: 9.71 ng/mL
concentration at 15 h after end of infusion [2]: 7.64 ng/mL
concentration at 15 h after end of infusion [4]: 3.39 ng/mL
concentration at 15 h after end of infusion [3]: 8.82 ng/mL
clearance (IV administration, healthy subjects, read-out: mean estimates of plasma clearance): 717 to 1000 mL/min
